From patent publication US20250066370A1, “BICYCLIC TRIAZINE DERIVATIVES FOR THE TREATMENT OF CANCER” (DEUTSCHES KREBSFORSCHUNGSZENTRUM, priority 2022, published 2025)

Legend:
CDK12 = CDK12 (Homo sapiens (Human), UniProt Q9NYV4); experiment: CDK12 nuclear protein level: immunofluorescence/high content analysis in CAL-120 cells; assay type: cell-based; settings: 24 h, nuclear CDK12 staining intensity, median, read-out: CDK12 degradation IF, DC50 - [mol/l] (median)
Experimental: In the context of the present invention, the term “DC50 CDK12” refers to the DC50 values obtained according to the assay described in this section (7) herein below, i.e. the DC50 values for the degradation of CDK12.
(§1) CAL-120 human breast cancer cells (DSMZ ACC 459) are seeded in 1536-well microtiter plates (800 cells per well) containing 50 nanoL of compounds in Dose-Response. Control wells received DMSO or Example 4. Plates are then incubated for 24 h at 37° C. in an humidified incubator and fixed with 4% PFA for 10 min. Then immunofluorescence (IF) against CDK12 (CellSignalling CDK12 Antibody #11973, rabbit, 1:100 dilution) is performed using standard IF protocols. Cells are then stained with Hoechst 33342 (Life Technologies, H-1399, 0.1 microg/ml) and imaged on an automated confocal microscopy system (e.g. Perkin Elmer Opera Phenix). Nuclear and cytoplasmic intensity as well as the nuclear/cytoplasmic intensity ratio is determined by automated image analysis using custom generated scripts (MetaXpress). Data is then transferred to Genedata Screener software, normalized to DMSO and control and DC50 values (degrading concentration to achieve 50% reduction of nuclear CDK12 staining intensity relative to controls) are reported.

[1] = test system: MDA-MB-231, human breast cancer cells; experiment: Proliferation assay MDA-MB-231 (crystal violet); assay type: cell-based; settings: 96 h, MDA-MB-231 parental cells, 4 days, median, read-out: Prolif-MDA MB-231, IC50 - [mol/l] (median)
Experimental: (§2) Human tumour cells were originally obtained from the American Type Culture Collection (ATCC), or from the Deutsche Sammlung von Mikroorganismen und Zellkulturen (DSMZ, German Collection of Microorganisms and Cell Cultures). Cultivated tumour cells (CAL-120, human breast adenocarcinoma cells, DSMZ ACC-459; MDA-MB-231, human breast cancer cells, ATCC HTB-26) were plated at a density of 4,000 cells/well in a 96-well multitier plate in 200 microL of their respective growth medium supplemented 10% fetal calf serum. After 24 hours, the cells of one plate (zero-point plate) were stained with crystal violet (see below), while the medium of the other plates was supplemented with the test substances in various concentrations (0 micromol/L, as well as in the range of 0.01-10 micromol/L; the final concentration of the solvent dimethyl sulfoxide was adjusted to 0.1%) using a Tecan HP D300 Digital Dispenser. The cells were incubated for 4 days in the presence of test substances. Cell proliferation was determined by staining the cells with crystal violet: the cells were fixed by adding 20 microL/measuring point of an 11% glutaric aldehyde solution for 15 minutes at room temperature. After three washing cycles of the fixed cells with water, the plates were dried at room temperature. The cells were stained by adding 100 microL/measuring point of a 0.1% crystal violet solution (pH 3.0). After three washing cycles of the stained cells with water, the plates were dried at room temperature. The dye was dissolved by adding 100 microL/measuring point of a 10% acetic acid solution. The extinction was determined by photometry at a wavelength of 595 nm. The change of cell number, in percent, was calculated by normalization of the measured values to the extinction values of the zero-point plate (=0%) and the extinction of the untreated (0 μM) cells (=100%). The IC50 values (inhibitory concentration at 50% of maximal effect) were determined by means of a 4 parameter fit.

[2] = test system: CAL-120, human breast adenocarcinoma cells; experiment: Proliferation assay CAL-120 (crystal violet); assay type: cell-based; settings: 96 h, CAL-120 parental cells, 4 days, median, read-out: Prolif-CAL-120, IC50 - [mol/l] (median)
Experimental: as §2

[3] = test system: BRCA1 mRNA expression in MDA-MB-231 cells; experiment: qRT-PCR assay: inhibition of BRCA1 mRNA expression in MDA-MB-231 cells; assay type: cell-based; settings: Homo sapiens, 24 h exposure, BRCA1 normalised to GAPDH, median, read-out: RTqPCR-MDA-MB-231, IC50 [mol/l], BRCA1 (median)
Experimental: 3. qRT-PCR Assay: BRCA1, ATR, MCL1 in MDA-MB-231, CAL-120
Tissue cultured human MDA-MB-231 human breast cancer cells were plated in 500 microL per well at 200,000 cells/well in a 24 well microtiter plate. After 24 h, the cells were exposed continuously for 24 h to test substances (substances were added with Tecan HP D300 Dispenser). RNA was prepared using Qiagen RNeasy MiniKit (#74106), RNA was quantified using a NanoDrop Equipment, and 600 nano grams of RNA was converted to cDNA using a SuperScript VILO kit (Thermofisher #11755050) followed by qPCR amplification. BRCA1 and ATR gene expression was measured by RT-qPCR and normalised to GAPDH housekeeping gene expression. qPCR primer sets have been purchased from Thermo Fisher Scientific/Applied Biosystems: BRCA1, #Hs 01556193; ATR. #Hs 00992123: GAPDH. #Hs 03929097.

CAL-120-CDK12d-res = experiment: Proliferation assay CDK12 degrader resistant CAL-120; assay type: cell-based, human
Description: (§3) CDK12-degrader resistant cells were generated by propagation of CAL-120 human breast adenocarcinoma cells (DSMZ ACC-459) and MDA-MB-231 human breast cancer cells (ATCC HTB-26) in presence of increasing concentrations of the CDK12 degrader compound example 4 from WO 2021/116178. Initial concentrations of example 4 were 2.0E-08 M for CAL-120 cells and 4.6E-08 M for MDA-MB-231 cells, corresponding to ca. 2-fold the IC50 of inhibition of the cells in an proliferation assay. After the treated cells recovered and proliferated again the concentration of compound example 4 was increased to 3-fold IC50.
as §2, with “To determine the inhibitory effect of test compounds on proliferation of CAL-120-CDK12d-res, MDA-MB-231-CDK12d-res the” for “Human tumour”, “cells” for “cells were originally obtained from the American Type Culture Collection (ATCC), or from the Deutsche Sammlung von Mikroorganismen und Zellkulturen (DSMZ, German Collection of Microorganisms and Cell Cultures). Cultivated tumour cells (CAL-120, human breast adenocarcinoma cells, DSMZ ACC-459; MDA-MB-231, human breast cancer cells, ATCC HTB-26)”

MDA-MB-231-CDK12d-res = experiment: Proliferation assay CDK12 degrader resistant MDA-MB-231; assay type: cell-based, human
Description: as §3
as §2, with “To determine the inhibitory effect of test compounds on proliferation of CAL-120-CDK12d-res, MDA-MB-231-CDK12d-res the” for “Human tumour”, “cells” for “cells were originally obtained from the American Type Culture Collection (ATCC), or from the Deutsche Sammlung von Mikroorganismen und Zellkulturen (DSMZ, German Collection of Microorganisms and Cell Cultures). Cultivated tumour cells (CAL-120, human breast adenocarcinoma cells, DSMZ ACC-459; MDA-MB-231, human breast cancer cells, ATCC HTB-26)”

CYCLIN K = CYCLIN K nuclear protein level: immunofluorescence/high content analysis in CAL-120 cells; assay type: cell-based, human; settings: 24 h, nuclear CCNK staining intensity, median, read-out: CYCLIN K degradation IF, DC50 - [mol/l] (median)
Experimental: as §1, with “CYCLIN K (ThermoFisher Scientific CCNK” for “CDK12 (CellSignalling CDK12”, “#PA5-85020,” for “#11973,”, “1:200” for “1:100”, “CCNK” for “CDK12”

Sequence of CDK12 (Q9NYV4 whole entry): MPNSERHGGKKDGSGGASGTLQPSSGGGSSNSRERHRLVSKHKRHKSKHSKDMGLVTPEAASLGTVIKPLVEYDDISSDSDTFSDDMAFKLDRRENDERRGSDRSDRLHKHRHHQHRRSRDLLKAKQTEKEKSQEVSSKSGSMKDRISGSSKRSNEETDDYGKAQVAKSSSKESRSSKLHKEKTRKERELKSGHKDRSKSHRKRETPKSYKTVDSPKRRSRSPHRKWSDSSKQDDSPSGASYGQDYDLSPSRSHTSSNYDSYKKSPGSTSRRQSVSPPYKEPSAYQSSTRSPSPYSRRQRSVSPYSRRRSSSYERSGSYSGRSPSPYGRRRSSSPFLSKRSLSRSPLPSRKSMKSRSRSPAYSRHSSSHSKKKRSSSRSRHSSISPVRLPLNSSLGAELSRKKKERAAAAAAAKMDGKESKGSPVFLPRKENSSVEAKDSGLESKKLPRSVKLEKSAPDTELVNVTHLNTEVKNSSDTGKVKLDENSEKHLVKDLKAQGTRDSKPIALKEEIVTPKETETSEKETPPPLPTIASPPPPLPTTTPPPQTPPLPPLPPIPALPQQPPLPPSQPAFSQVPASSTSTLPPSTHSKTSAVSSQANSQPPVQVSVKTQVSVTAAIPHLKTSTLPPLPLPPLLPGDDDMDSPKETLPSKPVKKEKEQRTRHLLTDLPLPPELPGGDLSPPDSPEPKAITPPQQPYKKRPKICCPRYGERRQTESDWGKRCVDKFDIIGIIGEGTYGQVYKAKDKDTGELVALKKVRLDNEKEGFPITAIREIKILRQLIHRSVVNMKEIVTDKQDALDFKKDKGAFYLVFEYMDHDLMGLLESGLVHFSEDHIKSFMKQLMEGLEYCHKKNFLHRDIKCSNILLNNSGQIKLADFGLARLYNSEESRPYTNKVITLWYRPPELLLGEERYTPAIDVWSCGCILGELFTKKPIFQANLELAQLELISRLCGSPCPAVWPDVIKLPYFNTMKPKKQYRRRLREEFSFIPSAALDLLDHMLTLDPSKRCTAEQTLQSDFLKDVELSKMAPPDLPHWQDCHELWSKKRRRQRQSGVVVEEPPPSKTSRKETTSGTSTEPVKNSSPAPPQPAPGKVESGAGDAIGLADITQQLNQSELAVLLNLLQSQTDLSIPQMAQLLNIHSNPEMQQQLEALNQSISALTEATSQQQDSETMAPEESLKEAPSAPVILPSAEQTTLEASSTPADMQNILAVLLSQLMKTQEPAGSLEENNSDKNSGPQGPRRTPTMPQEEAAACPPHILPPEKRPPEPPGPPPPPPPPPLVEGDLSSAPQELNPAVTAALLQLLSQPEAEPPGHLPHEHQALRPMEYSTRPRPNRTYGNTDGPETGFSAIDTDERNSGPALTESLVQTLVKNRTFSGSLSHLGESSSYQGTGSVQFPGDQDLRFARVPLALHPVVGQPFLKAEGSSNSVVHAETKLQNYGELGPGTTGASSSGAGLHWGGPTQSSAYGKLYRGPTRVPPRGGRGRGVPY
Sequence of CDK12 (O75909 whole entry partner): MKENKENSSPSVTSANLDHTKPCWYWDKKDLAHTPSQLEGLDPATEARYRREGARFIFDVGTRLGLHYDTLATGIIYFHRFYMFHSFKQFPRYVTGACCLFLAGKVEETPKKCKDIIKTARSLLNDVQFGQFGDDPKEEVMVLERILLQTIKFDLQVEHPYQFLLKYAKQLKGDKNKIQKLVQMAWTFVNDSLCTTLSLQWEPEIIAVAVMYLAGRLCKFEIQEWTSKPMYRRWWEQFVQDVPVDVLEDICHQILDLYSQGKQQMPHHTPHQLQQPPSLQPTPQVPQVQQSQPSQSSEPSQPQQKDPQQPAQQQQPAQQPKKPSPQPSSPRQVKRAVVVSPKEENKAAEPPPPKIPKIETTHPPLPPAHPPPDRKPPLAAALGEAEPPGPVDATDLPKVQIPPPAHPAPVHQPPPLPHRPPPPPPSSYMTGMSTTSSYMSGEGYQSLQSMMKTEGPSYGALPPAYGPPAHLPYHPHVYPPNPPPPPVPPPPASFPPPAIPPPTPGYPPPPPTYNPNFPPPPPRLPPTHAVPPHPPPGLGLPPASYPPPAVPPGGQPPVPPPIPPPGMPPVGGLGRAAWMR

DC50 (CDK12)	IC50 (MDA-MB-231-CDK12d-res; Homo sapiens, 96 h, CDK12 degrader resistant MDA-MB-231 cells, 4 days, median, read-out: Prolif-MDA MB-231-CDK12d-res, IC50 - [mol/] (median))	DC50 (CYCLIN K)	SMILES	IC50 [1]	IC50 [2]	IC50 [3]	IC50 (CAL-120-CDK12d-res; Homo sapiens, 96 h, CDK12 degrader resistant CAL-120 cells, 4 days, median, read-out: Prolif-CAL-120-CDK12d-res, IC50 - [mol/l] (median))	Ratio (Prolif-CAL-120-CDK12d-res IC50 / Prolif-CAL-120 IC50) (CAL-120-CDK12d-res; resistant versus parental CAL-120 cells)	Ratio (Prolif-MDA MB-231-CDK12d-res IC50 / Prolif-MDA MB-231 IC50) (MDA-MB-231-CDK12d-res; resistant versus parental MDA-MB-231 cells)
> 1000 nM			FC(F)(F)c1ccc(-c2nnc(CNc3nc(N4CCOCC4)nc4c(C(F)(F)F)cnn34)[nH]2)cn1 [Example 16, 2-(morpholin-4-yl)-8-(trifluoromethyl)-N-({5-[6-(trifluoromethyl)pyridin-3-yl]-4H-1,2,4-triazol-3-yl}methyl)pyrazolo[1,5-a][1,3,5]triazin-4-amine]	179 nM	211 nM				
120 nM			COc1ccc(-c2cnc(CNc3nc(N4CCOCC4)nn4c(C(F)(F)F)cnc34)[nH]2)cc1 [Example 13, N-{[5-(4-methoxyphenyl)-1H-imidazol-2-yl]methyl}-2-(morpholin-4-yl)-7-(trifluoromethyl)imidazo[2,1-f][1,2,4]triazin-4-amine]	85.9 nM	29.2 nM	57.1 nM			
> 1000 nM	156 nM	> 1000 nM	FC(F)(F)Oc1ccc(-c2nnc(CNc3nc(N4CCOCC4)nc4c(C(F)(F)F)cnn34)[nH]2)cn1 [Example 17, 2-(morpholin-4-yl)-N-({5-[6-(trifluoromethoxy)pyridin-3-yl]-4H-1,2,4-triazol-3-yl}methyl)-8-(trifluoromethyl)pyrazolo[1,5-a][1,3,5]triazin-4-amine]	112 nM	88.1 nM		134 nM	1.5	1.4
